From publication PMC4177084 (Journal of Thyroid Research, 2014)
Like-named read-outs stand apart in the source and are kept apart here.

Experiments:
RO82-W-1 cells = assay: Antiproliferation assay (WST-8); assay type: cell-based, human; conditions: for antiproliferative activity: RO82-W-1, in words; for T/N: ratio of IC50 values of thyroid cancer cell lines to that of Nthy-ori 3-1 cells: RO82-W-1; for IC50: RO82-W-1 (DTC), antiproliferative, 3 days
Nthy-ori 3-1 cells = assay: Antiproliferation assay (WST-8); assay type: cell-based, human; conditions: Nthy-ori 3-1 (normal thyroid), antiproliferative, 3 days
K1 cells = assay: Antiproliferation assay (WST-8); assay type: cell-based, human; conditions: for T/N: ratio of IC50 values of thyroid cancer cell lines to that of Nthy-ori 3-1 cells: K1; for IC50: K1 (DTC), antiproliferative, 3 days
FTC-133 cells = assay: Antiproliferation assay (WST-8); assay type: cell-based, human; conditions: for T/N: ratio of IC50 values of thyroid cancer cell lines to that of Nthy-ori 3-1 cells: FTC-133; for IC50: FTC-133 (DTC), antiproliferative, 3 days
FTC-236 cells = assay: Antiproliferation assay (WST-8); assay type: cell-based, human
FTC-238 cells = assay: Antiproliferation assay (WST-8); assay type: cell-based, human; conditions: for T/N: ratio of IC50 values of thyroid cancer cell lines to that of Nthy-ori 3-1 cells: FTC-238; for IC50: FTC-238 (DTC), antiproliferative, 3 days
RO82-W-1 xenograft = assay: Human thyroid cancer xenograft model, tumor growth; assay type: in vivo, nude mice
Experimental: Nude mice (CAnN.Cg-Foxn1nu/CrlCrlj, female, 5-6 weeks old) were obtained from Charles River Laboratories Japan (Kanagawa, Japan). Mice were maintained under specific pathogen-free conditions and housed in barrier facilities on a 12 h light/dark cycle, with food and water ad libitum. All procedures using laboratory animals were done in accordance with all applicable institutional and government regulatory guidelines and policies and were performed in an animal facility accredited by the Center for Accreditation of Laboratory Animal Care of the Japan Health Sciences Foundation.
Tumor cells were cultured in appropriate culture mediums. Cells were harvested with 0.05% or 0.25% (w/v) trypsin/EDTA and suspended with 50% (v/v) BD Matrigel (BD Biosciences, San Jose, CA) in the mixture of culture mediums at a density of 5–10 × 10^7 cells/mL. Then, 0.1-0.2 mL of the cell suspension was inoculated subcutaneously into the right flank region of each mouse. […] The tumor size was measured in two dimensions by using a caliper, and the volume was calculated by using the formula: tumor volume (mm^3) = 1/2 length (mm) × [width (mm)]^2. The change in tumor volume in the treated group relative to that in the control group was calculated according to the following formula: ΔT/C = (ΔT/ΔC) × 100%, where ΔT and ΔC are the change in tumor volume (i.e., growth) for the treated and vehicle control group, respectively. The percentage of tumor growth inhibition (%TGI) was calculated from the formula: [(1 − ΔT/ΔC) × 100].
Supplementary Fig. S7 Comparison of antitumor activity with antiangiogenesis activity in human differentiated thyroid cancer RO82-W-1 xenografts in nude mice.
Nude mice bearing RO82-W-1 xenografts […]
when tumor volumes reached about 200 mm3 (day 1). The tumor volume was measured on day 22. Each group consisted of 6 mice. Data are shown as means ± SD. * P < 0.05 compared with vehicle-treated mice.
(b) The percentage of tumor growth inhibition (%TGI). Each group consisted of 6 mice. Antitumor activity was calculated as %TGI at day 22. Data are shown as means ± SD. * P < 0.05 compared […]
analyze the relationship between antitumor activity (%TGI) and antiangiogenesis activity (percentage of […]
sorafenib-treated groups were plotted on the X- and Y-axes, respectively. %TGI and %MVI was determined as described in Materials and Methods. Analysis of covariance (ANCOVA) for %TGI was examined by using %MVI as a covariate (P<0.05)

[1] = test system: FGFR1 and its downstream effectors (FRS2, MEK, ERK); assay: Western blot of FGFR1 signaling in bFGF-stimulated RO82-W-1 cells
COT = target: T1, COT (Homo sapiens, UniProt P41279); assay: Cell free kinase inhibition assay; assay type: biochemical
T1 construct: purchased Carna Biosciences, Inc. (Kobe, Japan)
T1 sequence (P41279 whole entry): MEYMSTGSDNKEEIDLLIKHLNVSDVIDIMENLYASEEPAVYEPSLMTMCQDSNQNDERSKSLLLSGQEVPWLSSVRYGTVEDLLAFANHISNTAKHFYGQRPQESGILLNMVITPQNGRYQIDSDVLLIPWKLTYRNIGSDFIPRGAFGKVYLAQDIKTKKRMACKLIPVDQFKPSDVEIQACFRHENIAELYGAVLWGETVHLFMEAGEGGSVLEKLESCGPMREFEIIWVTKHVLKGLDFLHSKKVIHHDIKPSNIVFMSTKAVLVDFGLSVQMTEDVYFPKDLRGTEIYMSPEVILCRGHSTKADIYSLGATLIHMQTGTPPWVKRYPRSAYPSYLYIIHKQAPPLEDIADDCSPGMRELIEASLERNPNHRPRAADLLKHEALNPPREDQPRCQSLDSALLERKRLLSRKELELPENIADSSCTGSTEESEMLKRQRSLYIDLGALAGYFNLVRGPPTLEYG
Experimental: […]. Briefly, each test compound was mixed with enzyme, substrate, ATP, and Mg under appropriate buffer conditions for the ELISA or MSA. […] IC50 values (the half maximal inhibitory concentration) were calculated from concentrations versus % inhibition curves.

TT cells = assay: Antiproliferation assay (WST-8); assay type: cell-based; conditions: Homo sapiens, TT, 240 h
[2] = FTC-236 (DTC), antiproliferative, 3 days, read-out: IC50

Row | T/N: ratio of IC50 values of thyroid cancer cell lines to that of Nthy-ori 3-1 cells (K1 cells) | T/N: ratio of IC50 values of thyroid cancer cell lines to that of Nthy-ori 3-1 cells (RO82-W-1 cells) | T/N: ratio of IC50 values of thyroid cancer cell lines to that of Nthy-ori 3-1 cells (FTC-133 cells) | T/N: ratio of IC50 values of thyroid cancer cell lines to that of Nthy-ori 3-1 cells (FTC-238 cells) | Compound | antiproliferative activity (RO82-W-1 cells) | IC50 (Nthy-ori 3-1 cells) | IC50 (K1 cells) | IC50 (RO82-W-1 cells) | IC50 (FTC-133 cells) | IC50 (FTC-236 cells; [2]) | IC50 (FTC-238 cells) | IC50 (K1 cells; Homo sapiens, 72 h) | IC50 (RO82-W-1 cells; Homo sapiens, 72 h) | IC50 (FTC-133 cells; Homo sapiens, 72 h) | IC50 (FTC-238 cells; Homo sapiens, 72 h) | further results
1 | 2.39 | 0.14 | 2.11 | 2.04 | CCN(CC)CCCCNc1ncc2cc(-c3cc(OC)cc(OC)c3)c(NC(=O)NC(C)(C)C)nc2n1 [PD173074] |  |  |  |  |  |  |  | 11 µM | 630 nM | 9.7 µM | 9.4 µM | IC50 (Nthy-ori 3-1 cells; Homo sapiens, 72 h): 4.6 µM; T/N: ratio of IC50 values of thyroid cancer cell lines to that of Nthy-ori 3-1 cells (FTC-236 cells; FTC-236): 0.93; IC50 (FTC-236 cells; Homo sapiens, 72 h, FTC-236 (DTC), antiproliferative, 3 days, read-out: IC50): 4.3 µM; antitumor activity (RO82-W-1 xenograft; RO82-W-1 xenograft, daily oral administration for 14 days): significant antitumor activity; phosphorylation of FGFR1, FRS2, MEK, and ERK ([1]; 1 h treatment, then bFGF 20 ng/mL and heparin 10 min): inhibited the bFGF-induced phosphorylation of FGFR1, FRS2, MEK, and ERK in a concentration-dependent manner
2 | 2.07 | 0.14 | 1.64 | 1.5 | COc1cc(OC)cc(-c2cc3cnc(N)nc3nc2NC(=O)NC(C)(C)C)c1 [PD166866] |  | 14 µM | 29 µM | 1900 nM | 23 µM | > 30 µM | 21 µM |  |  |  |  | 

Further lines, the molecule ahead of its results:

Row | Compound | T/N: ratio of IC50 values of thyroid cancer cell lines to that of Nthy-ori 3-1 cells (K1 cells) | T/N: ratio of IC50 values of thyroid cancer cell lines to that of Nthy-ori 3-1 cells (RO82-W-1 cells) | T/N: ratio of IC50 values of thyroid cancer cell lines to that of Nthy-ori 3-1 cells (FTC-133 cells) | T/N: ratio of IC50 values of thyroid cancer cell lines to that of Nthy-ori 3-1 cells (FTC-238 cells) | antiproliferative activity (RO82-W-1 cells) | IC50 (Nthy-ori 3-1 cells) | IC50 (K1 cells) | IC50 (RO82-W-1 cells) | IC50 (FTC-133 cells) | IC50 (FTC-236 cells; [2]) | IC50 (FTC-238 cells) | IC50 (K1 cells; Homo sapiens, 72 h) | IC50 (RO82-W-1 cells; Homo sapiens, 72 h) | IC50 (FTC-133 cells; Homo sapiens, 72 h) | IC50 (FTC-238 cells; Homo sapiens, 72 h) | further results
3 | Cc1ccc(NC(=O)c2ccc(CN3CCN(C)CC3)cc2)cc1Nc1nccc(-c2cccnc2)n1 [Glivec, imatinib] |  |  |  |  | no antiproliferative activity |  |  |  |  |  |  |  |  |  |  | 
4 | COc1ccc(Oc2ccnc3cc(OC)c(OC)cc23)cc1OC [Ki6783] | 5.4 | 1.5 | 4.7 | 1.2 | no antiproliferative activity | 1.7 µM | 9.2 µM | 2500 nM | 8 µM | > 30 µM | 2 µM |  |  |  |  | 
5 | CNC(=O)c1cc(Oc2ccc(NC(=O)Nc3ccc(Cl)c(C(F)(F)F)c3)cc2)ccn1 [Sorafenib] |  |  |  |  |  |  |  |  |  |  |  | 5.2 µM | 4200 nM | 5.5 µM | 7.3 µM | IC50 (COT): > 10 µM; IC50 (FTC-236 cells; Homo sapiens, 72 h): 7.7 µM; IC50 (TT cells): 260 nM; tumor growth (RO82-W-1 xenograft; RO82-W-1 xenografts, oral once daily 21 days, doses between 30 and 300 mg/kg): inhibited tumor growth; phosphorylation of MEK ([1]; 10 μM, bFGF-stimulated): weakly inhibited; phosphorylation of FGFR1 or its other downstream effectors ([1]; up to 10 μM, bFGF-stimulated): did not clearly inhibit
